Where only a bound is given, the exact number is not on record here.

The target in the assay is T1, human NaV1.8 (Homo sapiens, UniProt Q9Y5Y9).
T1 construct: The following NaV1.8 recombinant cell line was used for recordings: HEK-NaV1.8 (NM 006514.1); expressed in transfected cells; host or cells: HEK (recombinant cell line HEK-NaV1.8)
T1 sequence (Q9Y5Y9 whole entry): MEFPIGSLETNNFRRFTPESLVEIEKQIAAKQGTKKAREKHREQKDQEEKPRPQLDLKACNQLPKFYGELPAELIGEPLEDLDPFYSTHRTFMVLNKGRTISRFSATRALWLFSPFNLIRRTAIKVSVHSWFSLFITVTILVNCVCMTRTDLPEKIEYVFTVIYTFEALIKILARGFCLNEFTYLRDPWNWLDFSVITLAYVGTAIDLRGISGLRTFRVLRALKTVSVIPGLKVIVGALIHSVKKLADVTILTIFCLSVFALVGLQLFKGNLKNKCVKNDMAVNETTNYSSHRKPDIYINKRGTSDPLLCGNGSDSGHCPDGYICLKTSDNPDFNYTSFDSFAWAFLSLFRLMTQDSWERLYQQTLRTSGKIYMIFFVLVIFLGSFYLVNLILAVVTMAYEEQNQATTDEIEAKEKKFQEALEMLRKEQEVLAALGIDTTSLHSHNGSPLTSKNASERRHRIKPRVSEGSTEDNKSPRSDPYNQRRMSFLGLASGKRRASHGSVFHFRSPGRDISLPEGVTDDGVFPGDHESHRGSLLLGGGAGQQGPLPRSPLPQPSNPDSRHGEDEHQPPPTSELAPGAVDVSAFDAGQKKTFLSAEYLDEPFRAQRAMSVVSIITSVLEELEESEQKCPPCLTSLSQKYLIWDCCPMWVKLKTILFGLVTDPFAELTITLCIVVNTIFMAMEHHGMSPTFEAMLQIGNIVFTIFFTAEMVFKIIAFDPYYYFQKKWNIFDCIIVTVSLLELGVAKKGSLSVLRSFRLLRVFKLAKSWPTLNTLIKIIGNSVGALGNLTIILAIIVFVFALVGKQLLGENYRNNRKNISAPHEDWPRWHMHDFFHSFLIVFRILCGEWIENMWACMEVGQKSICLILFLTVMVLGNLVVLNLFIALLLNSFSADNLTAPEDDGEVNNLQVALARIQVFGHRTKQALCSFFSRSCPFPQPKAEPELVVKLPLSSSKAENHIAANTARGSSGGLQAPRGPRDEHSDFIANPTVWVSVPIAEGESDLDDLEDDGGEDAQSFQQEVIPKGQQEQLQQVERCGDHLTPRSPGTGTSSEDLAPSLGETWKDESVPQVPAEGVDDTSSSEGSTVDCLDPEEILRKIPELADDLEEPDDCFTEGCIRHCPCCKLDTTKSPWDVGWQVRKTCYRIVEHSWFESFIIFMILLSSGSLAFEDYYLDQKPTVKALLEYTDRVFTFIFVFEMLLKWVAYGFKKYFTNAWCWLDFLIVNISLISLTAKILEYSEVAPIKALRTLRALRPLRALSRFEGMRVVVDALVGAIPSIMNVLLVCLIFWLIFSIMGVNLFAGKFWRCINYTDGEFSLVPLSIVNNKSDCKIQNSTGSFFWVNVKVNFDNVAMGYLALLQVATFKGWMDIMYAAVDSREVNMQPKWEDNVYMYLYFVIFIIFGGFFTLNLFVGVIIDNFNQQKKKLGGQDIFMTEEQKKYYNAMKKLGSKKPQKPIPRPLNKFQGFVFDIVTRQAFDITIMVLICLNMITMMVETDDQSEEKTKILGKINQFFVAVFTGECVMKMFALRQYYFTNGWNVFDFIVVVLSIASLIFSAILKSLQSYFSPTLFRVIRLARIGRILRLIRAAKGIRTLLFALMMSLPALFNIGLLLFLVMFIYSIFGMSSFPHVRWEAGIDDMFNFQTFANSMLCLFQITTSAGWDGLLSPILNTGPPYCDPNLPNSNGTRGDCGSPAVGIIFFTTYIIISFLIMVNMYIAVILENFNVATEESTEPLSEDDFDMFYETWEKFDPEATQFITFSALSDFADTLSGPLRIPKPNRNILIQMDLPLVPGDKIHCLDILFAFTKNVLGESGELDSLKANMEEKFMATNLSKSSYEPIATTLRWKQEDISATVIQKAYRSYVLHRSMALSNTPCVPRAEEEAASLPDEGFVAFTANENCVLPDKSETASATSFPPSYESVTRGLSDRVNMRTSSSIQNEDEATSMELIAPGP
T1 sequence (Q9NY72 23-215 partner): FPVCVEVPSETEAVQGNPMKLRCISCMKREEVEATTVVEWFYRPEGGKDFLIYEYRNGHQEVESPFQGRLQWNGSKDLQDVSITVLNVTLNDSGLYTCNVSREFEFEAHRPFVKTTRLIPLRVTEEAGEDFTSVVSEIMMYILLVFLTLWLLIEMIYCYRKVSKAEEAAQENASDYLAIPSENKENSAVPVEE
Nature of the assay: Electrophysiology: automated whole-cell voltage-clamp (patch clamp, Qube384) recordings of sodium currents in HEK-NaV1.8 cells. It counts as cell-based. The following applies: potency data either taken from inactivated or resting state, read-out: Potency category (human NaV1.8 IC50). An outline of the steps:
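Automated whole-cell patch clamp at room temperature on HEK cells expressing human NaV1.8, with 0.3% DMSO vehicle controls. State-dependent protocol from −120 mV tested resting (P1) and half-inactivated (P2, 4 s at V1/2) channels, plus 40-pulse trains at 10 and 20 Hz. Values after ~12 min compound exposure were normalised to baseline and corrected for vehicle run-down; IC50 from a 4-parameter logistic fit, taken from inactivated or resting state.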
As for `COc1nn(CC2CCC(F)(F)C2)c(C(=O)Nc2ccnc(C(N)=O)c2)c1C(F)(F)F` (centres unmarked) [SC-273, 4-(1-((3,3-difluorocyclopentyl)methyl)-3-methoxy-4-(trifluoromethyl)-lH-pyrazole-5-carboxamido)picolinamide], the IC50 is not above 100 nM. Turning to `Cc1c([C@H](C)C(F)(F)F)nn(CC2CC(F)(F)C2)c1C(=O)Nc1ccnc(C(N)=O)c1` [SC-188b], the half-maximal inhibitory concentration (IC50) lay within 100 to 1000 nM. The result for `NC(=O)c1cc(NC(=O)c2c(C(F)(F)F)c(C3CC3)nn2CC2CC2(F)F)ccn1` (single isomer, unassigned) [SC-279a] reads 100 to 1000 nM. In the case of `Cc1c(C(C)(F)F)nn(C[C@H]2C[C@@H]2C(F)(F)F)c1C(=O)Nc1ccnc(C(N)=O)c1` (single isomer, unassigned) [SC-204b] it was not above 100 nM; in that of `COC1CC(Cn2nc(C3CC3)c(C(F)(F)F)c2C(=O)Nc2ccnc(C(N)=O)c2)C1` (single isomer, unassigned) [SC-281b], 100 to 1000 nM; in that of `NC(=O)c1cc(NC(=O)c2c(C(F)(F)F)c(C3CC3)nn2C[C@@H]2CCO[C@@H]2C(F)(F)F)ccn1` (single isomer, unassigned) [SC-147a], not above 100 nM. Consider `NS(=O)(=O)c1cccc(NC(=O)c2c(C(F)(F)F)cnn2CC2CCCC2(F)F)c1` (centres unmarked) [SC-235, 1-((2,2-difluorocyclopentyl)methyl)-N-(3-sulfamoylphenyl)-4-(trifluoromethyl)-1H-pyrazole-5-carboxamide], for which the IC50 is not above 100 nM.

With `Cc1c(C(C)(F)F)nn(CC2CCC(F)(F)C2)c1C(=O)Nc1ccnc(C(N)=O)c1` (centres unmarked) [SC-167, 4-(1-((3,3-difluorocyclopentyl)methyl)-3-(1,1-difluoroethyl)-4-methyl-1H-pyrazole-5-carboxamido)picolinamide], the concentration for half-maximal inhibition (IC50) is not above 100 nM. The result for `Cc1nn(CC2CCC(F)(F)CC2)c(C(=O)Nc2cnnc(C(N)=O)c2)c1C(F)(F)F` [SC-321, 5-(1-((4,4-difluorocyclohexyl)methyl)-3-methyl-4-(trifluoromethyl)-1H-pyrazole-5-carboxamido)pyridazine-3-carboxamide] reads 100 to 1000 nM; that for `CS(=O)(=O)c1cccc(NC(=O)c2cc(C(F)F)nn2CC2CCCCC2)c1` [SC-09, 1-(cyclohexylmethyl)-3-(difluoromethyl)-N-(3-(methylsulfonyl)phenyl)-1H-pyrazole-5-carboxamide], 100 to 1000 nM; that for `Cc1c(C(C)(F)F)nn(CC2(C)CCO2)c1C(=O)Nc1ccnc(S(N)(=O)=O)c1` (centres unmarked) [SC-317, 3-(1,1-difluoroethyl)-4-methyl-1-((2-methyloxetan-2-yl)methyl)-N-(2-sulfamoylpyridin-4-yl)-lH-pyrazole-5-carboxamide], 1000 to 10000 nM. The result for `Cc1c(C(C)(F)F)nn(C[C@@]2(C)CCCCO2)c1C(=O)Nc1ccnc(S(N)(=O)=O)c1` (single isomer, unassigned) [SC-312b] reads 100 to 1000 nM; that for `Cc1c(C(C)(F)F)nn(CC2C[C@H]2C(F)F)c1C(=O)Nc1ccnc(S(C)(=O)=O)c1` (stereo in doubt) [SC-207, 3-(1,1-difluoroethyl)-1-((2-(difluoromethyl)cyclopropyl)methyl)-4-methyl-N-(2-(methylsulfonyl)pyridin-4-yl)-1H-pyrazole-5-carboxamide], 100 to 1000 nM. In the case of `Cc1nn(CC2COC2)c(C(=O)Nc2cccc(S(C)(=O)=O)c2)c1C(F)(F)F` [SC-234, 3-methyl-N-(3-(methyIsulfonyl)phenyl)-1-(oxetan-3-yImethyl)-4-(trifluoromethyl)-1H-pyrazole-5-carboxamide] it was 1000 to 10000 nM; in that of `CS(=O)(=O)c1cccc(NC(=O)c2c(C(F)(F)F)cnn2CC2(F)CCCCC2)c1` [SC-233, 1-((1-fluorocyclohexyl)methyl)-N-(3-(methylsulfonyl)phenyl)-4-(trifluoromethyl)-1H-pyrazole-5-carboxamide], 100 to 1000 nM. Regarding `CC(F)(F)c1nn(CC2CCC(F)(F)C2)c(C(=O)Nc2ccnc(C(N)=O)c2)c1Cl` (single isomer, unassigned) [SC-149b], the IC50 is not above 100 nM. In the case of `Cc1c(C(C)(F)F)nn(CC2(C(F)(F)F)CC(F)(F)C2)c1C(=O)Nc1ccnc(C(N)=O)c1` [SC-299, 4-(1-((3,3-difluoro-1-(trifluoromethyl)cyclobutyl)methyl)-3-(1,1-difluoroethyl)-4-methyl-1H-pyrazole-5-ca±oxamido)picolinamide] it was not above 100 nM. `CS(=O)(=O)c1cccc(NC(=O)c2c(C(F)F)cnn2CC2CCCCC2)c1` [SC-229, 1-(cyclohexylmethyl)-4-(difluoromethyl)-N-(3-(methylsulfonyl)phenyl)-1H-pyrazole-5-carboxamide]: the IC50 is not above 100 nM. In the case of `NS(=O)(=O)c1cccc(NC(=O)c2c(C(F)(F)F)cnn2CC2CCCCC2)c1` [SC-33, 2-(cyclohexylmethyl)-N-(3-sulfamoylphenyl)-4-(trifluoromethyl)pyrazole-3-carboxamide] it was not above 100 nM; in that of `Cc1c(OC(F)F)nn(CC2CCC(F)(F)C2)c1C(=O)Nc1ccnc(C(N)=O)c1` (centres unmarked) [SC-196, 4-(1-((3,3-difluorocyclopentyl)methyl)-3-(difluoromethoxy)-4-methyl-1H-pyrazole-5-carboxamido)picolinamide], not above 100 nM; in that of `CS(=O)(=O)c1cccc(NC(=O)c2c(C(F)(F)F)cnn2CC2CCCC2)c1` [SC-25, 2-(cyclopentylmethyl)-N-(3-methylsulfonylphenyl)-4-(trifluoromethyl)pyrazole-3-carboxamide], 100 to 1000 nM. In the case of `C[C@@H]1CC[C@H](Cn2nc(C3CC3)c(C(F)(F)F)c2C(=O)Nc2ccnc(C(N)=O)c2)O1` (single isomer, unassigned) [SC-286a] it was 100 to 1000 nM. Regarding `Cc1c(C(F)(F)C(F)(F)F)nn(CC2CCC2(F)F)c1C(=O)Nc1ccnc(C(N)=O)c1` (single isomer, unassigned) [SC-278a], the half-inhibitory concentration (IC50) was not above 100 nM.

In the case of `CS(=O)(=O)c1cc(NC(=O)c2c(C(F)(F)F)c(C3CC3)nn2CC2CC(F)(F)C2)ccn1` [SC-151, 3-cyclopropyl-1-((3,3-difluorocyclobutyl)methyl)-N-(2-(methylsulfonyl)pyridin-4-yl)-4-(trifluoromethyl)-1H-pyrazole-5-carboxamide], the IC50 is not above 100 nM. On to `NC(=O)c1cc(NC(=O)c2c(C(F)(F)F)c(C3CC3)nn2CC2CCCCO2)ccn1` (single isomer, unassigned) [SC-258a], for which the half-maximal inhibitory concentration (IC50) was not above 100 nM.

`Cc1c(C(F)(F)F)nn(CC2CCC(F)(F)CC2)c1C(=O)Nc1ccnc(S(N)(=O)=O)c1` [SC-320, 1-((4,4-difluorocyclohexyl)methyl)-4-methyl-N-(2-sulfamoylpyridin-4-yl)-3-(trifluoromethyl)-1H-pyrazole-5-carboxamide]: the IC50 is not above 100 nM. The result for `Cc1nn(CC2CCC(F)(F)CC2)c(C(=O)Nc2cc(C(N)=O)c(F)cn2)c1C(F)(F)F` [SC-268, 2-(1-((4,4-difluorocyclohexyl)methyl)-3-methyl-4-(trifluoromethyl)-1H-pyrazole-5-carboxamido)-5-fluoroisonicotinamide] reads 1000 to 10000 nM. As for `CS(=O)(=O)c1cc(NC(=O)c2c(CC(F)(F)F)c(C3CC3)nn2CC2CCOCC2)ccn1` [SC-305, 3-cyclopropyl-N-(2-(methylsulfonyl)pyridin-4-yl)-1-((tetrahydro-2H-pyran-4-yl)methyl)-4-(2,2,2-trifluoroethyl)-1H-pyrazole-5-carboxamide], the IC50 was in the range of 1000 to 10000 nM. On to `COc1cc(C(=O)Nc2cccc(S(C)(=O)=O)c2)n(CC2CCCCC2)n1` [SC-17, 2-(cyclohexylmethyl)-5-methoxy-N-(3-methylsulfonylphenyl)pyrazole-3-carboxamide], for which the IC50 fell in the range of 100 to 1000 nM.

Consider `CS(=O)(=O)c1cccc(NC(=O)c2cc(C(F)(F)F)nn2CC2CCCCC2)c1` [SC-01, 1-(cyclohexylmethyl)-N-(3-(methylsulfonyl)phenyl)-3-(trifluoromethyl)-1H-pyrazole-5-carboxamide], for which the half-inhibitory concentration (IC50) lay within 100 to 1000 nM.

Regarding `NC(=O)c1cc(NC(=O)c2c(Cl)c(C3CC3)nn2CC2CCOCC2)ccn1` [SC-261, 4-(4-chloro-3-cyclopropyl-1-((tetrahydro-2H-pyran-4-yl)methyl)-1H-pyrazole-5-carboxamido)picolinamide], the IC50 lay within 100 to 1000 nM. Take `NC(=O)c1cc(NC(=O)c2c(C(F)(F)F)c(OC(F)F)nn2C[C@H]2CCC(F)(F)C2)ccn1` [SC-158S]: the IC50 was not above 100 nM. In the case of `Cc1c(C(F)(F)F)nn(CC2CCC(F)(F)C2)c1C(=O)Nc1ccnc(S(N)(=O)=O)c1` (single isomer, unassigned) [SC-254a], the IC50 was not above 100 nM. The result for `Cc1c(C(F)(F)F)nn(CC2CCC(F)(F)CC2)c1C(=O)Nc1cncc(S(N)(=O)=O)c1` [SC-242, 1-((4,4-difluorocyclohexyl)methyl)-4-methyl-N-(5-sulfamoylpyridin-3-yl)-3-(trifluoromethyl)-1H-pyrazole-5-carboxamide] reads 100 to 1000 nM. On to `NS(=O)(=O)c1cccc(NC(=O)c2c(C(F)(F)F)c(C3CC3)nn2CC2CCC(F)(F)CC2)c1` [SC-230, 3-cyclopropyl-1-((4,4-difluorocyclohexyl)methyl)-N-(3-sulfamoylphenyl)-4-(trifluoromethyl)-lH-pyrazole-5-carboxamide], for which the IC50 was not above 100 nM. Turning to `CS(=O)(=O)c1cc(NC(=O)c2c(C(F)(F)F)c(C3CC3)nn2CC2CCC(F)(F)C2)ccn1` (single isomer, unassigned) [SC-277a], the IC50 was not above 100 nM. With `NC(=O)c1cc(NC(=O)c2c(C(F)(F)F)c(C3CC3)nn2CC2CC2)ccn1` [SC-266, 4-(3-cyclopropyl-1-(cyclopropylmethyl)-4-(trifluoromethyl)-1H-pyrazole-5-carboxamido)picolinamide], the IC50 is not above 100 nM. In the case of `Cc1c([C@H](C)C(F)F)nn(CC2CC(F)(F)C2)c1C(=O)Nc1ccnc(C(N)=O)c1` [SC-192b] it was 100 to 1000 nM.

For the origin of these results see US11999699B2, “Substituted pyrazole amides” (GRUENENTHAL GMBH, priority 2021, dated 2024).
